Bounds are passed on as bounds.

One may read the IC50 as the concentration that inhibits the measured activity by half. The low end stands for higher potency, the high end for lower potency.

In one test the target is T1, Aurora kinase A (Mus musculus, UniProt P97477).
T1 sequence (P97477 whole entry): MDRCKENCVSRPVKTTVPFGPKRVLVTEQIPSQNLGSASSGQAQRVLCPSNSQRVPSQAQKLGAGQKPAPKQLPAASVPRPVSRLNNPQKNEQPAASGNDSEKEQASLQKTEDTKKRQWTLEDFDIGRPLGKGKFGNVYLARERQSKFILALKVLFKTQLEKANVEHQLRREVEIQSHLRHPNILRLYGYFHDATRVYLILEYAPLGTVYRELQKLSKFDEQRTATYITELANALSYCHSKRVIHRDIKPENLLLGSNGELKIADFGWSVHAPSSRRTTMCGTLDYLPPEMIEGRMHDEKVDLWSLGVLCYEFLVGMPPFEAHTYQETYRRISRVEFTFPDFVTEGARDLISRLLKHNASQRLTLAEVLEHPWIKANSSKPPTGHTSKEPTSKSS
The experiment in a line: Aurora Kinase Inhibition Assay. The conditions noted are these: pH 7.5; 22 °C. The method, then: The compounds were tested for their ability to inhibit the phosphorylation of serine 10 of histone-H3 by purified recombinant murine Aurora-A enzyme. The phosphorylation of serine 10 was detected colorimetrically using Phospho-Histone H3 (Ser10) (6G3) Mouse mAb (9706, Cell Signaling Technologies, Danvers, MA).
For `CN1CCN(c2cccc(Nc3ncc4ccn(-c5cccnc5)c4n3)c2)CC1` [N-[3-(4-methylpiperazin-1-yl)phenyl]-7-(pyridin-3-yl)-7H-pyrrolo[2,3-d]pyrimidin-2-amine], it took 0.012 µM to reach half-maximal inhibition (IC50).

For `CN1CCN(c2cccc(Nc3ncc4ccn(-c5cccc(C(=O)NC6CCCC6)c5)c4n3)c2)CC1` [N-cyclopentyl-3-(2-{[3-(4-methylpiperazin-1-yl)phenyl]amino}-7H-pyrrolo[2,3-d]pyrimidin-7-yl)benzamide], the half-maximal inhibitory concentration (IC50) amounted to 0.82 µM.

As for `CN1CCN(c2ccc(Nc3ncc4ccn(-c5cccc(S(C)(=O)=O)c5)c4n3)cc2)CC1` [7-(3-methanesulfonylphenyl)-N-[4-(4-methylpiperazin-1-yl)phenyl]-7H-pyrrolo[2,3-d]pyrimidin-2-amine], the half-maximal inhibitory concentration (IC50) was 0.009 µM.

Take `CN1CCN(c2ccc(Nc3ncc4ccn(-c5cccnc5)c4n3)cc2)CC1` [N-[4-(4-methylpiperazin-1-yl)phenyl]-7-(pyridin-3-yl)-7H-pyrrolo[2,3-d]pyrimidin-2-amine]: inhibition was half-maximal at 0.013 µM (IC50).

Consider `O=S1(=O)CCN(c2ccc(Nc3ncc4ccn(C5CCCCC5)c4n3)cc2)CC1` [4-[4-({7-cyclohexyl-7H-pyrrolo[2,3-d]pyrimidin-2-yl}amino)phenyl]-1,4-thiomorpholine-1,1-dione], for which 0.012 µM corresponded to half-maximal inhibition (IC50).

`COCCN1CCN(Nc2ncc3ccn(C4CCCCC4)c3n2)CC1` [N-{7-cyclohexyl-7H-pyrrolo[2,3-d]pyrimidin-2-yl}-4-(2-methoxyethyl)piperazin-1-amine] registered an IC50 of 0.006 µM.

The compound `CN1CCN(c2ccc(Nc3ncc4ccn(C5CC6CCC5C6)c4n3)cc2)CC1` (stereo not given) [7-{bicyclo[2.2.1]heptan-2-yl}-N-[4-(4-methylpiperazin-1-yl)phenyl]-7H-pyrrolo[2,3-d]pyrimidin-2-amine] came in with an IC50 of 0.039 µM.

With `COc1cc2c(Nc3ccc(NC(=O)c4ccccc4)cc3)ncnc2cc1OCCCN1CCOCC1` [N-[4-({6-methoxy-7-[3-(morpholin-4-yl)propoxy]quinazolin-4-yl}amino)phenyl]benzamide], half-maximal inhibition (IC50) was put at 0.039 µM.

`CN1CCN(c2cccc(Nc3ncc4ccn(-c5cccc(C#N)c5)c4n3)c2)CC1` [3-(2-{[3-(4-methylpiperazin-1-yl)phenyl]amino}-7H-pyrrolo[2,3-d]pyrimidin-7-yl)benzonitrile] displayed a half-maximal inhibitory concentration (IC50) of 0.013 µM.

For the compound `CN1CCN(c2cccc(Nc3ncc4ccn(-c5cccc(S(C)(=O)=O)c5)c4n3)c2)CC1` [7-(3-methanesulfonylphenyl)-N-[3-(4-methylpiperazin-1-yl)phenyl]-7H-pyrrolo[2,3-d]pyrimidin-2-amine], the 50% inhibitory concentration (IC50) is 0.01 µM.

With `CN1CCN(c2cccc(Nc3ncc4ccn(-c5cccc(C(N)=O)c5)c4n3)c2)CC1` [3-(2-{[3-(4-methylpiperazin-1-yl)phenyl]amino}-7H-pyrrolo[2,3-d]pyrimidin-7-yl)benzamide], half-maximal inhibition (IC50) was put at 0.011 µM.

For `COc1cccc(-n2ccc3cnc(Nc4ccc(N5CCN(C)CC5)cc4)nc32)c1` [7-(3-methoxyphenyl)-N-[4-(4-methylpiperazin-1-yl)phenyl]-7H-pyrrolo[2,3-d]pyrimidin-2-amine], the IC50 turned out to be 0.018 µM.

With `CN1CCN(c2cccc(Nc3ncc4ccn(-c5ccccn5)c4n3)c2)CC1` [N-[3-(4-methylpiperazin-1-yl)phenyl]-7-(pyridin-2-yl)-7H-pyrrolo[2,3-d]pyrimidin-2-amine], the IC50 amounted to 0.005 µM.

Turning to `COc1cccc(-n2ccc3cnc(Nc4cccc(N5CCN(C)CC5)c4)nc32)c1` [7-(3-methoxyphenyl)-N-[3-(4-methylpiperazin-1-yl)phenyl]-7H-pyrrolo[2,3-d]pyrimidin-2-amine], the half-inhibitory concentration (IC50) turned out to be 0.006 µM.

For the compound `CN1CCN(c2ccc(Nc3ncc4ccn(C5Cc6ccccc6C5)c4n3)cc2)CC1` [7-(2,3-dihydro-1H-inden-2-yl)-N-[4-(4-methylpiperazin-1-yl)phenyl]-7H-pyrrolo[2,3-d]pyrimidin-2-amine], it took 0.018 µM to reach half-maximal inhibition (IC50).

`CN1CCN(c2cccc(Nc3ncc4ccn(-c5ccccc5)c4n3)c2)CC1` [N-[3-(4-methylpiperazin-1-yl)phenyl]-7-phenyl-7H-pyrrolo[2,3-d]pyrimidin-2-amine] showed a half-inhibitory concentration (IC50) of 0.003 µM.

In turn, `c1cc(N2CCOCC2)ccc1Nc1ncc2ccn(C3CCCCC3)c2n1` [7-cyclohexyl-N-[4-(morpholin-4-yl)phenyl]-7H-pyrrolo[2,3-d]pyrimidin-2-amine] showed an IC50 of 0.049 µM.

`CC(C)c1cccc(-n2ccc3cnc(Nc4cccc(N5CCN(C)CC5)c4)nc32)c1` [N-[3-(4-methylpiperazin-1-yl)phenyl]-7-[3-(propan-2-yl)phenyl]-7H-pyrrolo[2,3-d]pyrimidin-2-amine] had a half-inhibitory concentration (IC50) of 0.029 µM.

The compound `O=S1(=O)CCN(c2ccc(Nc3ncc4ccn(-c5ccccn5)c4n3)cc2)CC1` [4-(4-{[7-(pyridin-2-yl)-7H-pyrrolo[2,3-d]pyrimidin-2-yl]amino}phenyl)-1,4-thiomorpholine-1,1-dione] yielded a half-inhibitory concentration (IC50) of 0.0008 µM.

The target in a further test is Receptor-type tyrosine-protein kinase FLT3 (Homo sapiens, UniProt P36888). As to the kind of experiment: FLT3 Inhibition Assay.
Chain of Receptor-type tyrosine-protein kinase FLT3 (P36888 whole entry, looked up): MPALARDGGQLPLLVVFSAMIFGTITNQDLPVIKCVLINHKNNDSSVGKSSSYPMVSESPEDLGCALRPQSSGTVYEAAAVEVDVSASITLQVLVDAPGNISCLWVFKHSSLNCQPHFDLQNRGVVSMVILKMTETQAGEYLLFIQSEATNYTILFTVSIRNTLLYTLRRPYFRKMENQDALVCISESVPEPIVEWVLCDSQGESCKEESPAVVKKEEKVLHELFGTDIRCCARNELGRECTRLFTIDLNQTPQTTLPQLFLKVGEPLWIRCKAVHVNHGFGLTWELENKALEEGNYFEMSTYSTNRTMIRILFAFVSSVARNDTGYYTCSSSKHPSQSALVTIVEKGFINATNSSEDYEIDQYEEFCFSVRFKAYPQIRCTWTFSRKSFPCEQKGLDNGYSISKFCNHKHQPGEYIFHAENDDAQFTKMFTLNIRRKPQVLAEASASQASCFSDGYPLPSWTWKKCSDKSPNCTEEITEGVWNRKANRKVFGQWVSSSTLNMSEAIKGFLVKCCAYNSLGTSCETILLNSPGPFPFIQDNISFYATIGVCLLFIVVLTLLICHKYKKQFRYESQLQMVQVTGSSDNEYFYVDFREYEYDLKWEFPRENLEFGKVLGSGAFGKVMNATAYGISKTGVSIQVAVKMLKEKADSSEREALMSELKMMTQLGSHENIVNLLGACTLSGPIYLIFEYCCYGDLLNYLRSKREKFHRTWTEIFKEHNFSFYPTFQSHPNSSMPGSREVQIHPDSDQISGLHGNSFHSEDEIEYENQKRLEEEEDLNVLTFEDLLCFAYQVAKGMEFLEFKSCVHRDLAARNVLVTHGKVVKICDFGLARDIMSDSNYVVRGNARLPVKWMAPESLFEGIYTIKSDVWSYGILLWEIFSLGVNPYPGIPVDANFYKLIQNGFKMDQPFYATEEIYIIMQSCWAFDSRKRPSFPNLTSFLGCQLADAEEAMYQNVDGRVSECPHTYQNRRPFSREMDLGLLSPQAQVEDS
Details: not given
How it is done: The compounds were tested for their ability to inhibit the phosphorylation of poly(Glu:Tyr) by purified recombinant human FLT3. The extent of phosphorylation was quantitated by a fluorescent polarization competition immunoassay (Ex: 485 nm, Em:530 nm) using an anti-phosphotyrosine antibody and a phosphotyrosine tracer (Green Tyrosine Kinase Assay Kit, PanVera P2837).
`O=S1(=O)CCN(c2ccc(Nc3ncc4ccn(-c5ccccn5)c4n3)cc2)CC1` [4-(4-{[7-(pyridin-2-yl)-7H-pyrrolo[2,3-d]pyrimidin-2-yl]amino}phenyl)-1,4-thiomorpholine-1,1-dione]: the half-inhibitory concentration (IC50) is below 0.001 µM.

The record behind these values is BindingDB's records for doi:10.1016/j.bmcl.2006.08.080 (Johnson & Johnson Pharmaceutical, 2006).
